Source: patent US7109012B2, “Recombinant lysophosphatidic acid phosphatase” (Azwell Inc., priority 1998, dated 2006)

Experiments:
Format in all cases: biochemical
[1] = target: T1, bovine LPA phosphatase (Bos taurus, UniProt A6H757); assay: Substrate specificity, free phosphate quantified by molybdate/ascorbic acid absorbance at 795 nm; conditions: 37° C., 15 minutes, pH 7.5
T1 construct: from tissue; host or cells: bovine brain, cytosol fraction
T1 sequence (A6H757 33-429): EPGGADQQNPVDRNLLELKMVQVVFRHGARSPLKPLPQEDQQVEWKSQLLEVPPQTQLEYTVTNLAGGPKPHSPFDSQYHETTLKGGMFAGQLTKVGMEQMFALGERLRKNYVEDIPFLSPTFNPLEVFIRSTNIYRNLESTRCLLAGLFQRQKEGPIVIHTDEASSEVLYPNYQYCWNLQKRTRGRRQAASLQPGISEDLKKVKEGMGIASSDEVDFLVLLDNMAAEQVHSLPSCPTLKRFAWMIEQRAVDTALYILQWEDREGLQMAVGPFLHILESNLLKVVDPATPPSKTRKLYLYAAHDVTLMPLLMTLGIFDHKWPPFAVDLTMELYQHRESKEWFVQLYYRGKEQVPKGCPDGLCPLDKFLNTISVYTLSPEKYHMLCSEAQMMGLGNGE
Experimental: The activity for the LPA Phosphatase was determined in 50 μl of a reaction mixture [50 mM Tris-maleic acid (pH 7.5), 50 μM monooleoyl-[9,10-^3H]-lysophosphatidic acid (5×10^4 dpm), Triton™-X100 at 4-fold molar concentration of the substrate and enzymes at various concentrations]. The above mixture was incubated at 37° C. for 15 minutes, and the enzyme activity was determined by measuring the generated [^3H]monooleoylglycerol.
Each of the enzyme reaction solutions containing various substrates was reacted in the same manner as in Test Example 1, and 25 μl of perchloric acid was added to terminate the reaction. Seventy-five microliters of […], 25 μl of 10% ammonium molybdate and 50 μl of 10% ascorbic acid were further added thereto. The mixed solution was boiled at 95° C. for 5 minutes, and thereafter the absorbance at 795 nm was determined to quantify free phosphate.

[2] = target: T1, bovine LPA phosphatase; assay: Reactivity with [32P]LPA or [32P]PA, radioactivity of the aqueous layer; conditions: enzyme 0-175 ng, substrate 0-100 μM
Excerpt: FIG. 7 is a graph for evaluating the reactivity of bovine LPA phosphatase with [^32P]LPA or [^32P] PA, each being previously purified with TLC.
In order to further confirm in detail the reactivity when 1-oleoyl-LPA and dioleoyl-PA were used as substrates, [^32P]LPA and [^32P]PA were used as substrates, which had been labeled by using [γ-^32P]ATP and E. coli DG kinase [Waggoner, D. W. et al., (1996) J. Biol. Chem. 271, 16506–16509], and purified with TLC previously. Each of the reactions was carried out by varying the enzyme amount (0–175 ng), or varying the concentration of the substrate (0–100 μM). The enzyme reaction was terminated with 100 μl of 0.1 N hydrochloric acid in methanol solution, and 200 μl of chloroform and 1 M magnesium chloride were each added. The mixture was vigorously mixed, and thereafter centrifuged at 1,000×g for 5 minutes. The radioactivity of 175 μl of the aqueous layer was determined to evaluate the enzyme reaction (FIG. 7).

[3] = target: T2, Recombinant LPA Phosphatase (Homo sapiens, UniProt Q9NPH0); assay: Determination reagent (Reagent a / Reagent b), coupled enzymatic phosphate assay, absorbance at 570 nm; conditions: 5 minutes after Reagent b; for whether assayed by the determination reagent (change in absorbance at 570 nm): 0.2 mmol/l sample, 37° C.
T2 construct: comprises a signal peptide consisting of 40 amino acid residues at N-terminal, and was a novel phosphatase having 421 amino acid residues; 6xHis; made in house; host or cells: E. coli JM109, vector pQE-30
T2 sequence (Q9NPH0 48-428 limits assumed): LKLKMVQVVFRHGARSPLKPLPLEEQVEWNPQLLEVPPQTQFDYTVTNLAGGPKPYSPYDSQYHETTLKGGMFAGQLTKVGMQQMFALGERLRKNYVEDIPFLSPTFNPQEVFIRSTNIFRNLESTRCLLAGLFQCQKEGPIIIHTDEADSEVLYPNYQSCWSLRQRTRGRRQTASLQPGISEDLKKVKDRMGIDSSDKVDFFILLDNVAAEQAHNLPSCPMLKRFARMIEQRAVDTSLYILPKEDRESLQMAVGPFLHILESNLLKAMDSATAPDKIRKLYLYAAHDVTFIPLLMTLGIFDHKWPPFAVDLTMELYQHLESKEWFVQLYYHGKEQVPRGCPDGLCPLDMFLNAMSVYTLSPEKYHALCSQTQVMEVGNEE
Experimental: The following determination reagents (Reagent a, Reagent b) were prepared.
Each of the various LPAs such as 1-palmitoyl-LPA, 1-stearoyl-LPA, 1-oleoyl-LPA, 2-oleoyl-LPA, 1-linoleoyl-LPA and 1-arachidonoyl-LPA was dissolved in physiological saline containing a surfactant, to prepare a 0.2 mmol/l sample. Two-hundred and forty microliters of Reagent a was added to 8 μl of the sample, and the mixture was reacted at 37° C. for 5 minutes. Thereafter, 80 μl of Reagent b was added thereto, and the mixture was further reacted at 37° C. for 5 minutes. The change in the absorbance at a wavelength of 570 nm for 5 minutes after adding Reagent b was determined using reagent blank as a control.
The absorbance dramatically increases after addition of reagent b, reaching a peak in several minutes. In addition, each of various phospholipids such as 1,2-dipalmitoylphosphatidic acid (1,2-dipalmitoyl-PA), 1-palmitoylphosphatidylethanolamine (1-palmitoyl-LPE), and 1-palmitoylphosphatidylcholine (1-palmitoyl-LPC) was dissolved in physiological saline containing a surfactant, to prepare a 0.2 mmol/l sample. The absorbance was determined by the same procedures.
Further, the change in the absorbance was determined by the same procedures for each of commercially available control sera, 0.2 mM 1-oleoyl-LPA, and one prepared by adding 1-oleoyl-LPA to the commercially available control serum so as to be 0.2 mM. The determination accuracy (%) of LPA was calculated from each of the obtained changes in the absorbance by the following equation: […]

[4] = target: T1, bovine LPA phosphatase; assay: Hydrolysis of [3H]1-oleoyl-LPA evaluated by TLC; conditions: 5 nmol substrate, enzyme 0-150 ng
Experimental: The experiment for the specific activity and the reaction rate, and the like is performed by using the following separation method. Concretely, the above enzyme reaction product (50 μl of a mixture) was lyophilized, and monooleoylglycerol was added as a carrier. Thereafter, the mixture was analyzed by thin-layer chromatography (TLC) using a solvent system of n-butanol/acetic acid/water (30.4/4.8/4.8). The TLC plate was exposed to iodine steam, and spots of the monooleoylglycerol were scraped off, and the radioactivity was determined.
Next, in order to confirm the reactivity with 1-oleoyl-LPA in detail, the enzyme reaction was carried out in the same manner as in Test Example 2 using [^3H]1-oleoyl-LPA (5 nmol, 1×10^5 dpm) as a substrate, and evaluated by TLC (FIG. 6).

Molecule | hydrolysis by bovine LPA phosphatase (free phosphate) [1] | other results
Lysophosphatidic acid [LPA] |  | reactivity of bovine LPA phosphatase with 32P-labelled substrate [2]: extremely high reactivity
CCCCCCCCCCCCCCCC(=O)OC[C@@H](O)COP(=O)([O-])OCC[N+](C)(C)C [LPC, 1-palmitoylphosphatidylcholine] |  | whether assayed by the determination reagent (change in absorbance at 570 nm) [3]: cannot substantially be done
CCCCCCCCCCCCCCCC(=O)OC[C@H](COP(=O)(O)O)OC(=O)CCCCCCCCCCCCCCC [PA, 1,2-dipalmitoylphosphatidic acid] |  | whether assayed by the determination reagent (change in absorbance at 570 nm) [3]: cannot substantially be done
CCCCCCCC/C=C\CCCCCCCC(=O)OC[C@@H](O)COP(=O)(O)O [1-oleoyl-LPA, 1-oleoyl-lysophosphatidic acid] | strongly hydrolyzed | Changes in Absorbance ([3]; 0.2 mmol/l, 570 nm): 0.0988
[3H]/C(CCCCCCCC)=C(\[3H])CCCCCCCC(=O)OC[C@@H](O)COP(=O)(O)O [[^3H]1-oleoyl-LPA, monooleoyl-[9,10-^3H]-lysophosphatidic acid] |  | hydrolysis to [3H]1-oleoylglycerol (TLC) [4]: hydrolyzed
bisphosphatidic acid | did not hydrolyze | 

Further lines, with some results ahead:

hydrolysis by bovine LPA phosphatase (free phosphate) [1] | Molecule | other results
did not hydrolyze | O=P(O)(O)OCC(O)CO (stereo not drawn) [glycerol phosphate] | 
did not hydrolyze | phosphatidic acid | 
did not hydrolyze | CCCCCCCCCCCCC/C=C/[C@@H](O)[C@@H](N)COP(=O)(O)O [sphingosine 1-phosphate] | 
did not hydrolyze | cardiolipin | 
did not hydrolyze | ceramide 1-phosphate | 
